# EP0611765A1, “2-(Imidazol-1-yl)-3-heteroarylpropylidene-aminoxyalkanoic acid derivatives” (PHARMACIA S.p.A., priority 1993, dated 1994)
# Legend:
# TxA₂ Synthase [1] = target: T1, TxA₂ Synthase (Rattus norvegicus, UniProt P49430); assay: In vitro effects on TxB₂ production in rat whole blood during clotting (RIA); format: cell-based; conditions: result in words
# T1 construct: Blood was withdrawn from the abdominal aorta of the animals under light ether anesthesia; from tissue; host or cells: rat whole blood (clotting; platelets)
# T1 sequence (P49430 1-533): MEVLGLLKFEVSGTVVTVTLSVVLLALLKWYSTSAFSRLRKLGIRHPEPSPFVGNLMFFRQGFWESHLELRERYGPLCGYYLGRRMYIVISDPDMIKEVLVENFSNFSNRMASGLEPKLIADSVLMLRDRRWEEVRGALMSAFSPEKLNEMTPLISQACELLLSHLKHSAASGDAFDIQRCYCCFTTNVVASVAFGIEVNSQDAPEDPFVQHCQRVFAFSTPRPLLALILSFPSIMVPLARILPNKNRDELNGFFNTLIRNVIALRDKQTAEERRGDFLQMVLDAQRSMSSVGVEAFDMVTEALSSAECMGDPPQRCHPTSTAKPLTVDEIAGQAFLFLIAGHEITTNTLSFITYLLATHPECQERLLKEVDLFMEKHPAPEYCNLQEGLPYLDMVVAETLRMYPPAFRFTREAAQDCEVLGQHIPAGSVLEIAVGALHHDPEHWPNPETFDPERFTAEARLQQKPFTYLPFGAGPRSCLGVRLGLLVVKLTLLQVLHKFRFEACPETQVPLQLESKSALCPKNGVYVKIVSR
# Method: The compounds of formula (I) were for example tested for their ability to inhibit TxA₂ Synthase activity (as reflected by TxB₂ generated in whole blood during clotting or in isolated glomeruli) in vitro in the rat.
# The in vitro experiments were carried out as follows: The effect of the compounds on TxA₂ synthesis was evaluated in serum.
# Blood was withdrawn from the abdominal aorta of the animals under light ether anesthesia.
# Samples were then allowed to clot for 1 h at 37°C, centrifuged at 3000 rpm for 10 min, serum collected and stored at -20°C until assayed. TxB₂ levels were determined by RIA according to previously described procedures [Patrono et al. - Thromb.
# TxA₂ synthase [2] = target: T2, TxA₂ synthase (Homo sapiens, UniProt P24557); conditions: statement on the known compound; cited from earlier work
# T2 sequence (P24557 1-533): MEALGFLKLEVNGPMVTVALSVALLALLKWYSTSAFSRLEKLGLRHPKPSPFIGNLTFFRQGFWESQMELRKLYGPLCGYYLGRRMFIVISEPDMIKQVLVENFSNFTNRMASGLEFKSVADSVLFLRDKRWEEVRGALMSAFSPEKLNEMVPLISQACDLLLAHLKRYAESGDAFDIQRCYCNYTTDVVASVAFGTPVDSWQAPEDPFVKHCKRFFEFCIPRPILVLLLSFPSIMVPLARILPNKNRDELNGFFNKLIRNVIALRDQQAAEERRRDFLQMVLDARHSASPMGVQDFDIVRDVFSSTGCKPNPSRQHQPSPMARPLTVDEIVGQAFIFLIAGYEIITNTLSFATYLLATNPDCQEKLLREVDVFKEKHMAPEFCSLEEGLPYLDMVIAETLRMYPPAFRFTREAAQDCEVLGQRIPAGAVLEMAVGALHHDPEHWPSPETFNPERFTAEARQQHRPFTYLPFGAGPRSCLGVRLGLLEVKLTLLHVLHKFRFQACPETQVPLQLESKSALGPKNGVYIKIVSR
inhibitory activity on TxA₂ synthesis (TxA₂ Synthase [1]),SMILES,TxA₂ synthase inhibitory activity (TxA₂ synthase [2])
marked inhibitory activity,"O=C(O)CCCCO/N=C(\C1CCCCC1)C(Cc1cnccn1)n1ccnc1 (racemic) [FCE 27751, (±)-(E)-5-[2-pyrazinylmethyl-2-(imidazol-1-yl)-1-cyclohexylethylidene]aminoxypentanoic acid]",–
–,"O=C(O)COc1ccc(CCNS(=O)(=O)c2ccccc2)cc1 [BM 13177, Sulotroban]",devoid of TxA₂ synthase inhibitory activity
